# Key:
# CAMKK1 = CAMKK1 (Homo sapiens, UniProt Q8N5S9); assay: biochemical; design: DiscoveRx KINOMEscan competition binding, percent of DMSO control signal at 100 nM; conditions: read-out: Fig. 4a / Percent Control / Compound 1; percent of DMSO control, competition binding
# RET(M918T) = RET(M918T) (Homo sapiens, UniProt P07949, M918T); assay: biochemical; design: DiscoveRx KINOMEscan competition binding, percent of DMSO control signal at 100 nM; conditions: read-out: Fig. 4a / Percent Control / Compound 1; percent of DMSO control, competition binding
# INSR = INSR (Homo sapiens, UniProt P06213); assay: biochemical; design: DiscoveRx KINOMEscan competition binding, percent of DMSO control signal at 100 nM; conditions: read-out: Fig. 4a / Percent Control / Compound 1; percent of DMSO control, competition binding
# MINK = molecular target: T1, MINK (Homo sapiens, UniProt Q8N4C8); assay: biochemical; design: DiscoveRx KINOMEscan competition binding, percent of DMSO control signal at 100 nM; conditions: read-out: Fig. 4a / Percent Control / Compound 1; percent of DMSO control, competition binding
# T1 construct: gene MINK1
# T1 sequence (Q8N4C8 whole entry): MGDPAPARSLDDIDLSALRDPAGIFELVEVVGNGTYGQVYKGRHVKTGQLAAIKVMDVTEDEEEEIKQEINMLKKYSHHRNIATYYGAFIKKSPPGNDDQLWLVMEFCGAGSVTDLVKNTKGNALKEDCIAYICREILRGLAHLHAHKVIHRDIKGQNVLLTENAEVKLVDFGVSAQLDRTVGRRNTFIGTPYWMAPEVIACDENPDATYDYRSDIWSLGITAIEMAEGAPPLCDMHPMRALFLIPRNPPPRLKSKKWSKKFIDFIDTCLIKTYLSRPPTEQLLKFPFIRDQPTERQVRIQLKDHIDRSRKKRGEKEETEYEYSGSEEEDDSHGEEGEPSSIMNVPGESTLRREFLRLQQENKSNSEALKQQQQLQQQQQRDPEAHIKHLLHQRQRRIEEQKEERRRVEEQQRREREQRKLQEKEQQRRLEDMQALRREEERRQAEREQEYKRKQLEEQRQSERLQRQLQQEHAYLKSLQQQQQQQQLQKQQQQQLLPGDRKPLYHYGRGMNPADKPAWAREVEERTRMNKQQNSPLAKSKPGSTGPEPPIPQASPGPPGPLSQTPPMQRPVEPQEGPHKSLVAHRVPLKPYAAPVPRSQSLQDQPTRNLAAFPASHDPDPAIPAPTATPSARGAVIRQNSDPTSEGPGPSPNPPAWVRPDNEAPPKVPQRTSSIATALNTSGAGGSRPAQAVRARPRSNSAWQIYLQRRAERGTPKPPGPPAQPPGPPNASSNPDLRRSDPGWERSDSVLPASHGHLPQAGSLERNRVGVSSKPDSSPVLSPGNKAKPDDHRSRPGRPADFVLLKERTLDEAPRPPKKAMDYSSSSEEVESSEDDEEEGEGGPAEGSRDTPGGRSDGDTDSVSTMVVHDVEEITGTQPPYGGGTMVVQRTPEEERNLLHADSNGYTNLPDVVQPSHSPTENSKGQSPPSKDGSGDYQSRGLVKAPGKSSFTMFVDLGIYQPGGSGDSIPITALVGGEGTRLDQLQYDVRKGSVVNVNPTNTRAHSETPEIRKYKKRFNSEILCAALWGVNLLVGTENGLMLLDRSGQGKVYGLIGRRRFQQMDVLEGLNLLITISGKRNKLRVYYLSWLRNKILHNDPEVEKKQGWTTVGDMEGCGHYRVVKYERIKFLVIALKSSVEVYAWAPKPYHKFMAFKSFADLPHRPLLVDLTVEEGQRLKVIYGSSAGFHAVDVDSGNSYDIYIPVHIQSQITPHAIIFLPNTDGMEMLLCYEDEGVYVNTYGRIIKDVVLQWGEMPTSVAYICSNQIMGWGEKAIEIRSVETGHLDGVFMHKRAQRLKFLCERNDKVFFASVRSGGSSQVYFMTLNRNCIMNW
# [1] = molecular target: T2, RPS6KA5(Kin.Dom.1-N-terminal) (Homo sapiens, UniProt O75582); assay: biochemical; design: DiscoveRx KINOMEscan competition binding, percent of DMSO control signal at 100 nM; conditions: read-out: Fig. 4a / Percent Control / Compound 1; percent of DMSO control, competition binding
# T2 construct: Kin.Dom.1-N-terminal
# GRK7 = GRK7 (Homo sapiens, UniProt Q8WTQ7); assay: biochemical; design: DiscoveRx KINOMEscan competition binding, percent of DMSO control signal at 100 nM; conditions: read-out: Fig. 4a / Percent Control / Compound 1; percent of DMSO control, competition binding
# GRK7, sequence (Q8WTQ7 whole entry): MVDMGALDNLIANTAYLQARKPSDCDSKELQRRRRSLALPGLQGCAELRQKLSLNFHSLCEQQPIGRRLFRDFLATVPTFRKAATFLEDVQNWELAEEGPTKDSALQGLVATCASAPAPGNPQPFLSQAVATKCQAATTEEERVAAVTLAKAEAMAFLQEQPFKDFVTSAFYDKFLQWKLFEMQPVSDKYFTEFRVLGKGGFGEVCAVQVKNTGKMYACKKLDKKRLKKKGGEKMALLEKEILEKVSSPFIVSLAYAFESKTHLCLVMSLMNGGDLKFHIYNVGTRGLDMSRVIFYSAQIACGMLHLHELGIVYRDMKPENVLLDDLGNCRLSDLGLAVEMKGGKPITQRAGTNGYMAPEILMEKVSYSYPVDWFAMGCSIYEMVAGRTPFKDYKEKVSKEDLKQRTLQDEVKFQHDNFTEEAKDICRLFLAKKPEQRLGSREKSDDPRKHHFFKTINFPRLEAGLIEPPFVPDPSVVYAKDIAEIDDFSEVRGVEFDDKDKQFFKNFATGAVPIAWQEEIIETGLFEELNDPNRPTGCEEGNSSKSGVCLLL
# HIPK3 = HIPK3 (Homo sapiens, UniProt Q9H422); assay: biochemical; design: DiscoveRx KINOMEscan competition binding, percent of DMSO control signal at 100 nM; conditions: read-out: Fig. 4a / Percent Control / Compound 1; percent of DMSO control, competition binding
# FLT3 = FLT3 (Homo sapiens, UniProt P36888); assay: biochemical; design: DiscoveRx KINOMEscan competition binding, percent of DMSO control signal at 100 nM; conditions: read-out: Fig. 4a / Percent Control / Compound 1; percent of DMSO control, competition binding
# FLT3, sequence (P36888 whole entry): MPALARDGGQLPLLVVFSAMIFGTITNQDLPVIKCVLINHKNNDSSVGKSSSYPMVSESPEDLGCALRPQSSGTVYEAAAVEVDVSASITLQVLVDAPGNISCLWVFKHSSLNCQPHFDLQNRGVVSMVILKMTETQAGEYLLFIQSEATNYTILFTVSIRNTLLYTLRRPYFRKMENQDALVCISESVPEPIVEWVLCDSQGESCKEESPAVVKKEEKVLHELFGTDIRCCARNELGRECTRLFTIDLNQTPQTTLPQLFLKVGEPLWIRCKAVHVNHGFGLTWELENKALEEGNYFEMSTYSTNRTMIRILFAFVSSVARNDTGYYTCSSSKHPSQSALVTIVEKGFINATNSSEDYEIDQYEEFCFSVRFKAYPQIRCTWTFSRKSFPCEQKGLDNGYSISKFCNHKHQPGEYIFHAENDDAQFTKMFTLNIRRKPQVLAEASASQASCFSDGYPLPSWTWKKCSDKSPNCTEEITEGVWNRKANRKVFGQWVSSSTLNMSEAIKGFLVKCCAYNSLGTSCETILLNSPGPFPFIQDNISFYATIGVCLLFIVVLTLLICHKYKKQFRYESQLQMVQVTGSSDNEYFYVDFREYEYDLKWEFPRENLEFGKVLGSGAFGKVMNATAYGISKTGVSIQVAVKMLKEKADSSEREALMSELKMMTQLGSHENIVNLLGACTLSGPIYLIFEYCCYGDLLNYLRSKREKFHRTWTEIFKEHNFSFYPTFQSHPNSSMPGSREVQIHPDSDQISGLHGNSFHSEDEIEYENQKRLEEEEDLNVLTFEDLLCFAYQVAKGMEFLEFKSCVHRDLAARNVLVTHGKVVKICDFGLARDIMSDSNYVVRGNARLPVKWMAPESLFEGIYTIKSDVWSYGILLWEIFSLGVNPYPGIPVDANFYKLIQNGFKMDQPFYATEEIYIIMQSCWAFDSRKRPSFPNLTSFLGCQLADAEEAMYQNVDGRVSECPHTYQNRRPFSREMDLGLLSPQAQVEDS
# MEK1 = molecular target: T3, MEK1 (Homo sapiens, UniProt Q02750); assay: biochemical; design: DiscoveRx KINOMEscan competition binding, percent of DMSO control signal at 100 nM; conditions: read-out: Fig. 4a / Percent Control / Compound 1; percent of DMSO control, competition binding
# T3 construct: gene MAP2K1
# FGFR3(G697C) = FGFR3(G697C) (Homo sapiens, UniProt P22607, G697C); assay: biochemical; design: DiscoveRx KINOMEscan competition binding, percent of DMSO control signal at 100 nM; conditions: read-out: Fig. 4a / Percent Control / Compound 1; percent of DMSO control, competition binding
# [2] = molecular target: T4, TYK2(JH1domain-catalytic) (Homo sapiens, UniProt P29597); assay: biochemical; design: DiscoveRx KINOMEscan competition binding, percent of DMSO control signal at 100 nM; conditions: read-out: Fig. 4a / Percent Control / Compound 1; percent of DMSO control, competition binding
# T4 construct: JH1domain-catalytic
# HASPIN = HASPIN (Homo sapiens, UniProt Q8TF76); assay: biochemical; design: DiscoveRx KINOMEscan competition binding, percent of DMSO control signal at 100 nM; conditions: read-out: Fig. 4a / Percent Control / Compound 1; percent of DMSO control, competition binding
# EPHB1 = EPHB1 (Homo sapiens, UniProt P54762); assay: biochemical; design: DiscoveRx KINOMEscan competition binding, percent of DMSO control signal at 100 nM; conditions: read-out: Fig. 4a / Percent Control / Compound 1; percent of DMSO control, competition binding
# EPHB1, sequence (P54762 whole entry): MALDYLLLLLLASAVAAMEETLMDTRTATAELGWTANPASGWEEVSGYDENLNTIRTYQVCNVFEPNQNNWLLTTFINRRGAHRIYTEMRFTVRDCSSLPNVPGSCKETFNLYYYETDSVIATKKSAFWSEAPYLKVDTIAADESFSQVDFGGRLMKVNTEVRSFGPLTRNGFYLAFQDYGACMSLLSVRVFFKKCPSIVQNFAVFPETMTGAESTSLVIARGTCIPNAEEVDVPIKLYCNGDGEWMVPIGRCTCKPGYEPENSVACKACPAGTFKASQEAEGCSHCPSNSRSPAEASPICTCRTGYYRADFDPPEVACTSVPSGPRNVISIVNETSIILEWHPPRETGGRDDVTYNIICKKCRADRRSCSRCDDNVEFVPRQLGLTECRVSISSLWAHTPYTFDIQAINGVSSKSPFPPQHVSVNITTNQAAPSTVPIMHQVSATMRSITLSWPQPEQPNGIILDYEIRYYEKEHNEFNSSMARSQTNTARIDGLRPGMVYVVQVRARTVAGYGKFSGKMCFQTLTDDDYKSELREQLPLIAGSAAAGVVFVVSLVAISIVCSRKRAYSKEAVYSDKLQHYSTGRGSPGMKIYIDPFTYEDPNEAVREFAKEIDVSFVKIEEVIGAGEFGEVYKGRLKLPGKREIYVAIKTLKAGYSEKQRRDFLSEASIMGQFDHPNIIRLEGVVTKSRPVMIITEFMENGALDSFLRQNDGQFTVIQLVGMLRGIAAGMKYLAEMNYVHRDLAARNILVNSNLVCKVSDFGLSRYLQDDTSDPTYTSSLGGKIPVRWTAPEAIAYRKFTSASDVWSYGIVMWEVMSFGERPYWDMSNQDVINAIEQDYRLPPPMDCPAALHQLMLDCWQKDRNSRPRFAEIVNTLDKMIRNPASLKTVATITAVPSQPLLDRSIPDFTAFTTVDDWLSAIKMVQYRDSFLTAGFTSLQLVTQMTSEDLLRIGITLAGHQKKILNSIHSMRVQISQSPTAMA
# WEE1 = WEE1 (Homo sapiens, UniProt P30291); assay: biochemical; design: DiscoveRx KINOMEscan competition binding, percent of DMSO control signal at 100 nM; conditions: read-out: Fig. 4a / Percent Control / Compound 1; percent of DMSO control, competition binding
# WEE1, sequence (P30291 whole entry): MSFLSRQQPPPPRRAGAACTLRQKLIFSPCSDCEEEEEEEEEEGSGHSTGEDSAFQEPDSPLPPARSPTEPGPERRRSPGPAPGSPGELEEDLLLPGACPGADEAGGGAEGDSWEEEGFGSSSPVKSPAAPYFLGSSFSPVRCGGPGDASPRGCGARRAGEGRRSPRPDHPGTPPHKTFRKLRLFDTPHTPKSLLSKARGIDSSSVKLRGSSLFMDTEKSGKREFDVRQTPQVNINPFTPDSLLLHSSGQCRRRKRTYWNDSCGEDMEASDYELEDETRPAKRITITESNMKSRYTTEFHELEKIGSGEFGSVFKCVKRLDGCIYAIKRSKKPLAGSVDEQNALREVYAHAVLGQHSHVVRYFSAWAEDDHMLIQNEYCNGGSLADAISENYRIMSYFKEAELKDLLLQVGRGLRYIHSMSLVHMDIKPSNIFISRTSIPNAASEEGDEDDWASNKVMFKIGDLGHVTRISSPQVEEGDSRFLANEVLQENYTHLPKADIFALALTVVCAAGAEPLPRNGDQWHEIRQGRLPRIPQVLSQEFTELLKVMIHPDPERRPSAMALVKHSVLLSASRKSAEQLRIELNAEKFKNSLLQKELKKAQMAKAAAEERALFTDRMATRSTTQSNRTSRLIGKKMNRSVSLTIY
# EGFR(G719S) = EGFR(G719S) (Homo sapiens, UniProt P00533, G719S); assay: biochemical; design: DiscoveRx KINOMEscan competition binding, percent of DMSO control signal at 100 nM; conditions: read-out: Fig. 4a / Percent Control / Compound 1; percent of DMSO control, competition binding
# TNNI3K = TNNI3K (Homo sapiens, UniProt Q59H18); assay: biochemical; design: DiscoveRx KINOMEscan competition binding, percent of DMSO control signal at 100 nM; conditions: read-out: Fig. 4a / Percent Control / Compound 1; percent of DMSO control, competition binding
# [3] = tested on: JAK2-STAT signaling pathways in HEL cells; assay: Western blot analysis of JAK2-STAT signaling in HEL cells; type: cell-based, human; conditions: 0.3-10 μM, 0.5 h; for phosphorylation of JAK2 at Y221 site: dose-dependent
# Method: HEL cells were added into six-well plates (2 × 10^6 cells/well) and then put into the incubator (37 °C, 5% CO2). After 24 h, the tested compounds were diluted in RPMI-1640 medium (final DMSO concentration = 0.1%) with different concentrations (0 μM, 0.3 μM, 1 μM, 3 μM, and 10 μM) was added separately into the wells, and incubated for another 0.5 h, then cells were collected and lysed. Proteins from each sample were isolated by SDS-PAGE and transferred to PVDF membrane. The membranes were blocked in 5% milk (TBST) for 1 h at room temperature, and subsequently incubated with the indicated primary antibody in blocking buffer overnight at 4 °C. Primary antibodies were used as follows: p-Y1007/8-JAK2 (#3771, CST, 1:1000), p-Y221-JAK2 (#11150, SAB, 1:500), p-Y705-STAT3 (#11045, SAB, 1:1000), p-Y694-STAT5 (#13386, SAB, 1:2000), STAT3 (10253-2-AP, Proteintech, 1:4000), STAT5 (12071-1-AP, Proteintech, 1:4000), JAK2 (E-AB-70193, Elabscience, 1:2000) and β-Actin (E-AB-20034, Elabscience, 1:10000). Then the membranes were washed with TBST (3 × 5 min), incubated with HRP-conjugated secondary antibody for 1 h at room temperature, washed again, and then exposed by chemiluminescence method using the enhanced ECL immunoblotting system (Tanon, Shanghai, China). All the experiments were repeated in triplicate. Blot bands were quantified by densitometry using Image J software v1.51.
# DYRK1B = DYRK1B (Homo sapiens, UniProt Q9Y463); assay: biochemical; design: DiscoveRx KINOMEscan competition binding, percent of DMSO control signal at 100 nM; conditions: read-out: Fig. 4a / Percent Control / Compound 1; percent of DMSO control, competition binding
# Method: (§1) The kinase selectivity profile was performed by using the DiscoveRx KINOMEscan platform. […] Test compounds were prepared as 40× stocks in 100% DMSO and directly diluted into the assay. The results were defined as a percentage of signal between the negative (DMSO, 100% control) and the positive (control compound, 0% control) control, which was calculated as follows: percent control = [(test compound signal − positive control signal)/(negative control signal − positive control signal)] × 100.
# LTK = LTK (Homo sapiens, UniProt P29376); assay: biochemical; design: DiscoveRx KINOMEscan competition binding, percent of DMSO control signal at 100 nM; conditions: read-out: Fig. 4a / Percent Control / Compound 1; percent of DMSO control, competition binding
# Method: as §1
# CAMKK1, sequence (Q8N5S9 whole entry): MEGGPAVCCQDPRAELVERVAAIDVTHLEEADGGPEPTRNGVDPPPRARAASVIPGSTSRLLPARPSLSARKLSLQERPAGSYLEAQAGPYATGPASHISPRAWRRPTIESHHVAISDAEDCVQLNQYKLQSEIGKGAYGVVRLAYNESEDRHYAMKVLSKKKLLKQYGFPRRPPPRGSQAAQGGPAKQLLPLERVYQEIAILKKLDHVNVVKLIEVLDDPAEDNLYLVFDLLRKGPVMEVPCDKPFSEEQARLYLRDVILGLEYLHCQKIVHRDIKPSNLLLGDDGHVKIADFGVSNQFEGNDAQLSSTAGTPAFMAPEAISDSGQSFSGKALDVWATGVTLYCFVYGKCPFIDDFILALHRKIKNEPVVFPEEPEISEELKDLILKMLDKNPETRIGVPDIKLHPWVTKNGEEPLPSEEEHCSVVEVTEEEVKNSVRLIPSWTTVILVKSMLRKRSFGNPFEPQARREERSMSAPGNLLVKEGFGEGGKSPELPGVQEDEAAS
smiles,measurement,setting,value
Cc1cnc2nc1Nc1cccc(c1)COCc1cc(ccc1OCCN1CCCC1)N2 [Compound 1],remaining binding at 0.1 µM,CAMKK1,100%
same,remaining binding at 0.1 µM,RET(M918T),96%
same,remaining binding at 0.1 µM,INSR,84%
same,remaining binding at 0.1 µM,MINK,82%
same,remaining binding at 0.1 µM,[1],83%
same,remaining binding at 0.1 µM,GRK7,93%
same,remaining binding at 0.1 µM,HIPK3,87%
same,remaining binding at 0.1 µM,FLT3,36%
same,remaining binding at 0.1 µM,MEK1,77%
same,remaining binding at 0.1 µM,FGFR3(G697C),94%
same,remaining binding at 0.1 µM,[2],27%
same,remaining binding at 0.1 µM,HASPIN,79%
same,remaining binding at 0.1 µM,EPHB1,97%
same,remaining binding at 0.1 µM,WEE1,90%
same,remaining binding at 0.1 µM,EGFR(G719S),91%
same,remaining binding at 0.1 µM,TNNI3K,100%
same,activation of downstream signaling molecule STAT3 and STAT5,[3],significantly inhibited
same,phosphorylation of JAK2 at Y1007/8 site,[3],increased
same,phosphorylation of JAK2 at Y221 site,[3],efficiently blocked
same,remaining binding at 0.1 µM,DYRK1B,100%
same,remaining binding at 0.1 µM,LTK,100%
Cc1cnc2nc1Nc1cccc(c1)COCC=CCOCc1cc(ccc1OCCN1CCCC1)N2 [Compound 3],activation of downstream signaling molecule STAT3 and STAT5,[3],significantly inhibited
same,phosphorylation of JAK2 at Y1007/8 site,[3],increased
same,phosphorylation of JAK2 at Y221 site,[3],efficiently blocked
